Values after ≈ are worked out from the molar mass of the structure shown. Some results are limits rather than exact numbers.

This note sets out measurements from article PMC7251074, “Identification of Anti-tuberculosis Compounds From Aurone Analogs” (Frontiers in Microbiology, 2020).

Data set [1] has as its system purine nucleoside phosphorylase (PNP). The data set is described as follows: Purine nucleoside phosphorylase counter-assay. Format: biochemical. The settings on record: aurone 50 μM; PNP 0.2 U, MESG 50 μM, potassium phosphate 10 mM. Here is the method: FIGURE 4 AA2A and 9504 inhibit Mtb-Cs activity. (A) Assay to measure the ability of aurones to inhibit Cs of Mtb. (B) SDS-PAGE analysis of extracted rRv3227 (left) and rRv2540c (right). Lane 1: marker (PageRuler^M Unstained); 2: crude protein extracts; 3–5: samples eluted from Ni-column by 125, 250, and 500 mM imidazole, respectively; 6: the concentrated proteins eluted by 500 mM imidazole. (C) Evaluation of 9501, 9504, 9505, and 9510 inhibitory effects on Mtb-Cs activity. (D) Evaluation of AA2A and AA8 inhibitory effects on Mtb-Cs activity. Data are means of three independent experiments ± S.D. The reaction mixture comprised Mtb-Cs, various concentrations of aurone leads, EPSP ([…]), FMN (0.04 mM) and NADH (0.3 mM). The production of chorismate from the enzymatic reaction was determined by measuring Pi production using MESG (0.2 mM) and PNP (1 U). […] The reaction mixture comprised PNP (0.2 U), MESG (50 μM), potassium phosphate (10 mM), and aurones (50 μM for 9501, 9504, 9505, and 9510; 200 μM for AA2A and AA8). No significant differences (P > 0.05) were identified between each of the aurone-treated group and the positive control group. Data are means of three independent experiments ± S.D.

In data set [2] the test system is intracellular Mtb in THP-1 cell derived macrophages. Nature of the data set: Efficacy against intracellular Mtb in THP-1 derived macrophages. It counts as cell-based, Mycobacterium tuberculosis. The settings on record: 48 h. Here is the method: Human monocyte THP-1 cells were seeded at 5 × 10^4 cells / well in 96-well tissue culture black plates with clear bottoms. PMA was used to induce the monocytes to develop into macrophages for 3 days before infection. The tdTomato-expressing Mtb strain was employed for cell infection at an MOI = 20. After a 3 h incubation of the Mtb strain with THP-1 cells, extracellular bacteria were removed by washing twice with the cell culture medium. 200 μL of cell culture medium containing either 25 or 50 μM aurones or 1X MICs of amikacin (AMI, 1 μg/mL), ethambutol (ETH, 0.5 μg/mL), RIF (0.4 μg/mL) and isoniazid (INH) (0.5 μg/mL) was added to each well in triplicate and incubated for 48 h. Infected cells treated with the vehicle buffer served as negative controls. Cells were then lysed and plated for CFU counting.
FIGURE 2 Aurones inhibit intracellular Mtb. (A) Growth ratios of samples treated with the aurone leads or control drugs compared to the growth ratio of untreated control. Growth ratio of each sample = FI of each sample at 48 h / FI of the same sample at 0 h. (B) CFUs of samples treated with the aurone leads or control drugs compared to the CFU of untreated control at 0 and 48 h. 25 and 50 μM of the aurone leads were incubated with the infected cells (MOI = 20) after removing extracellular bacteria. Positive controls: AMI (1 μg/mL), ETH (0.5 μg/mL), INH (0.5 μg/mL), and RIF (0.4 μg/mL). Data are means of three independent experiments ± S.D. *P < 0.05, **P < 0.01, ****P < 0.0001.

In a further data set the test system is HepG2 cells. The data set is described as follows: MTT cell viability cytotoxicity assay, HepG2. It counts as cell-based, human. Here is the method:
Cytotoxicities of the aurones were evaluated in Vero cells (ATCC), HepG2 (ATCC), and THP-1 cells (ATCC) using the standard microculture tetrazolium (MTT) cell viability assay. Media used for the Vero cells was DMEM supplemented with 10% calf serum; for HepG2 cells the media used was DMEM supplemented with 20% calf serum; and for THP-1 cells the media used was RPMI-1640 supplemented with 10% calf serum (HyClone Cosmic Calf, GE Lifesciences). Cells were seeded into a 96-well plate. For THP-1 cells, phorbol-12-myristate-13-acetate (PMA) was used to induce the monocytes to develop into macrophages for 3 days before the cytotoxicity assay. A series of two-fold dilutions of aurones or RIF were added into the cell culture media in microplates to determine the concentration that eliminated 50% of eukaryotic cell growth in a 2-days incubation. Cells without drug treatment were incubated with the vehicle buffer and served as negative controls (100% viable). Cells treated with digitonin (100 μg/mL) served as the positive controls. After a 2-days incubation, 10 μL of MTT reagent was loaded into each well, and incubated for 3 h at 37°C. Hundred microliter of detergent solution was then added into each well and the 96-well plates were incubated for 2 h. Absorbance of each sample in the 96-well plates was measured at […]. Viability of each drug-treated sample was calculated as the absorbance of the sample divided by the absorbance of the untreated sample multiplied by 100.
We determined MICs of the top six aurone leads (AA2A, AA8, 9501, 9504, 9505, and 9510) using the standard resazurin microtiter assay (REMA) ([Palomino et al., 2002]). The MIC was defined as the lowest drug concentration that prevented the color change of resazurin from blue to pink. The MICs for 9504, 9505, 9501, 9510, AA2A, and AA8 were 6.25, 12.5, 25, 25, 25, and 50 μM, respectively (Table 2). We evaluated the cytotoxic effects of aurones to human liver cells HepG2, primate kidney Vero cells and human monocyte THP-1 cells after a 2-days incubation using the microculture tetrazolium (MTT) cell viability assay. Concentration gradients of the selected aurones or RIF (as a control) were incubated with the three cell lines. We calculated half maximal inhibitory concentration (IC50) of aurones on these three cell lines. By comparing MICs with IC50, we calculated the selectivity index (SI) for each aurone lead as […].

The subject of another data set is Vero cells. Nature of the data set: MTT cell viability cytotoxicity assay, Vero. It counts as cell-based, primate. The following applies: IC50 Vero / MIC Mtb; 2880 min.
Data set [3] is described as follows: MTT cell viability cytotoxicity assay, Vero. Format: cell-based, primate. The settings on record: monkey, vero cells; MTT, 2-days incubation; read-out: IC50 Vero.
For data set [4], the target named is Mtb chorismate synthase (Mtb-Cs, Rv2540c) (Mycobacterium tuberculosis, UniProt P9WPY1). The data set is described as follows: Mtb chorismate synthase activity assay (coupled, Pi production with MESG/PNP). It counts as biochemical. The following applies: Pi production at A360, EPSP, FMN 0.04 mM, NADH 0.3 mM.
In another data set the test system is THP-1 cells. The data set is described as follows: MTT cell viability cytotoxicity assay, THP-1 derived macrophages. It counts as cell-based, human.
Data set [5] relates to tdTomato-expressing Mtb CDC1551 strain. The data set is described as follows: microbe, parasite or virus in culture. The following applies: Mycobacterium tuberculosis, 72 h, aurones at 100 μM, 3 days co-incubation, tdTomato fluorescence intensity; read-out: Inhibitory rate. It counts as cell-based, Mycobacterium tuberculosis.
In data set [6] the test system is tdTomato-expressing Mtb in the lungs of BALB/c mice. Format: in vivo, Mycobacterium tuberculosis. The following applies: after a 12-days treatment.
For a further data set, the system named is Mtb CDC1551. Nature of the data set: Resazurin microtiter assay (REMA) for MICs. It counts as cell-based. The settings on record: Mycobacterium tuberculosis, CDC1551, 168 h.

Chain of Mtb chorismate synthase (Mtb-Cs, Rv2540c) (P9WPY1 whole entry): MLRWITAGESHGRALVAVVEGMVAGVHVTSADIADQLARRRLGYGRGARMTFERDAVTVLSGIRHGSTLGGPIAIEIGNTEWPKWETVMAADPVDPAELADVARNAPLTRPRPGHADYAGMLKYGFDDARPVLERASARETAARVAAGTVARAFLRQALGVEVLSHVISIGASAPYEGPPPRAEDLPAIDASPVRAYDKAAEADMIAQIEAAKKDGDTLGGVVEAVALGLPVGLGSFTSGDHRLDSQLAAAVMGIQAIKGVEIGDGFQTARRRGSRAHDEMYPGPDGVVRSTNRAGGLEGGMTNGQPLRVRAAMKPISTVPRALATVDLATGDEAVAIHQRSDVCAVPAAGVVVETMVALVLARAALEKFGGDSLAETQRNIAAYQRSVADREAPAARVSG

In the case of `CN(C)c1ccc(C=C2Oc3cc(Cl)ccc3C2=O)cc1` [Aurone 9501], the “inhibition of PNP” value in data set [1] is “do not inhibit”. Moreover, the “Mtb CFU compared to the initial intracellular Mtb load (0 h)” value in data set [2] (50 μM) is given as “reduced Mtb CFU significantly”. Also, the “CFUs of intracellular Mtb at 48 h compared to before treatment (0 h)” value in data set [2] (25 and 50 μM) is “did not increase”. The IC50 with HepG2 cells (Homo sapiens, HepG2, 48 h, read-out: IC50 HepG2) was found to be 396 µM; in data set [4], 5.36 ± 1.65 µM; in the data set with THP-1 cells (Homo sapiens, THP-1, 48 h, read-out: IC50 THP-1), 325 µM. In addition, the “SI (IC50/MIC) HepG2” value in the data set on HepG2 cells (IC50 HepG2 / MIC Mtb, 2880 min) amounted to 15.85. Further, the selectivity index with HepG2 cells (on all three cell lines (HepG2, Vero, THP-1)) is given as more than 10. The “SI (IC50/MIC) Vero” value with Vero cells is on record as 44.50. Besides, the CC50 at 48 h in [3] amounted to 1110 µM. Moreover, the “SI (IC50/MIC) THP-1” value in the data set on THP-1 cells (IC50 THP-1 / MIC Mtb, 2880 min) was 12.98. For the same molecule, the inhibition at 100 µM in [5] is 85 ± 2.24%. Moreover, in data set [6], the “Mtb load in the lungs of infected mice” value is given as “significantly reduced”. Also, the minimal inhibitory concentration (MIC) against Mtb CDC1551 is 25 µM (≈ 7.49 µg/mL).
